Source: patent US9365584B2, “Thieno [2,3-B] pyridinedione activators of AMPK and therapeutic uses thereof” (Poxel, priority 2009, dated 2016)

Test system: AMPK
Assay: AMPK enzyme activity assay (Delfia technology, AMARA peptide substrate)
Format: biochemical
Details: compound at 30 μM vs AMP at 200 μM
Method: The following biological test allows the determination of the efficacy of compounds of formula (1) onto AMPK protein.
AMPK enzyme activities were assayed by using a Delfia technology. AMPK enzyme activities were carried out in microtiter plates in the presence of a synthetic peptide substrate (AMARAASAAALARRR, the “AMARA” peptide) and activators in serial dilutions. Reactions were initiated by the addition of AMPK. Enzyme activity was assayed by using an anti-phosphoserine antibody to measure the quantity of phosphate incorporated into the AMARAA.
No: Number of the molecule
Activity: Ratio between the % of control (basal activity) of compound of formula (1) at 30 μM and the % of control (basal activity) of AMP (natural substrate) at 200 μM.

Activity: Ratio between the % of control (basal activity) of compound of formula (1) at 30 μM and the % of control (basal activity) of AMP (natural substrate) at 200 μM | Structure (SMILES)
A (0%<A<50%) | COc1ccccc1-c1c(Cl)sc2c1C(=O)C(C)(c1cccc(C)c1)C(=O)N2 (stereo not drawn) [No 56, 2-chloro-3-(2-methoxyphenyl)-5-methyl-5-(m-tolyl)-7H-thieno[2,3-b]pyridine-4,6-dione]
B (50%≦B<75%) | Cc1ccc(-c2c(Cl)sc3c2C(=O)C(C)(c2ccc(F)cc2)C(=O)N3)cc1 (stereo not drawn) [No 57, 2-chloro-5-(4-fluorophenyl)-5-methyl-3-(p-tolyl)-7H-thieno[2,3-b]pyridine-4,6-dione]
C (C≧75%) | COc1cccc(C2(C)C(=O)Nc3sc(Cl)c(-c4ccccc4C)c3C2=O)c1 (stereo not drawn) [No 58, 2-chloro-5-(3-methoxyphenyl)-5-methyl-3-(o-tolyl)-7H-thieno[2,3-b]pyridine-4,6-dione]
C (C≧75%) | Cc1cccc(C2(C)C(=O)Nc3sc(Cl)c(-c4ccccc4C)c3C2=O)c1 (stereo not drawn) [No 59, 2-chloro-5-methyl-5-(m-tolyl)-3-(o-tolyl)-7H-thieno[2,3-b]pyridine-4,6-dione]
C (C≧75%) | Cc1ccc(C2(C)C(=O)Nc3sc(Cl)c(-c4cccc(F)c4)c3C2=O)cc1 (stereo not drawn) [No 60, 2-chloro-3-(3-fluorophenyl)-5-methyl-5-(p-tolyl)-7H-thieno[2,3-b]pyridine-4,6-dione]
C (C≧75%) | COc1cccc(-c2c(Cl)sc3c2C(=O)C(C)(c2cccc(OC)c2)C(=O)N3)c1 (stereo not drawn) [No 61, 2-chloro-3,5-bis(3-methoxyphenyl)-5-methyl-7H-thieno[2,3-b]pyridine-4,6-dione]
C (C≧75%) | COc1cccc(-c2c(Cl)sc3c2C(=O)C(C)(c2cccc(F)c2)C(=O)N3)c1 (stereo not drawn) [No 62, 2-chloro-5-(3-fluorophenyl)-3-(3-methoxyphenyl)-5-methyl-7H-thieno[2,3-b]pyridine-4,6-dione]
C (C≧75%) | COc1cccc(C2(C)C(=O)Nc3sc(Cl)c(-c4ccc(F)cc4)c3C2=O)c1 (stereo not drawn) [No 63, 2-chloro-3-(4-fluorophenyl)-5-(3-methoxyphenyl)-5-methyl-7H-thieno[2,3-b]pyridine-4,6-dione]
C (C≧75%) | CC1(c2cccc(S(C)(=O)=O)c2)C(=O)Nc2sc(Cl)c(-c3ccc(F)cc3)c2C1=O (stereo not drawn) [No 64, 2-chloro-3-(4-fluorophenyl)-5-methyl-5-(3-methyl-sulfonylphenyl)-7H-thieno[2,3-b]pyridine-4,6-dione]
C (C≧75%) | COc1ccccc1-c1c(Cl)sc2c1C(=O)C(C)(c1ccc(C)cc1)C(=O)N2 (stereo not drawn) [No 65, 2-chloro-3-(2-methoxyphenyl)-5-methyl-5-(p-tolyl)-7H-thieno[2,3-b]pyridine-4,6-dione]
C (C≧75%) | COc1ccccc1-c1c(Cl)sc2c1C(=O)C(C)(c1cccc(F)c1)C(=O)N2 (stereo not drawn) [No 66, 2-chloro-5-(3-fluorophenyl)-3-(2-methoxyphenyl)-5-methyl-7H-thieno[2,3-b]pyridine-4,6-dione]
C (C≧75%) | COc1ccc(C2(C)C(=O)Nc3sc(Cl)c(-c4ccccc4OC)c3C2=O)cc1 (stereo not drawn) [No 67, 2-chloro-3-(2-methoxyphenyl)-5-(4-methoxyphenyl)-5-methyl-7H-thieno[2,3-b]pyridine-4,6-dione]
C (C≧75%) | COc1cccc(C2(C)C(=O)Nc3sc(Cl)c(-c4ccccc4OC)c3C2=O)c1 (stereo not drawn) [No 68, 2-chloro-3-(2-methoxyphenyl)-5-(3-methoxyphenyl)-5-methyl-7H-thieno[2,3-b]pyridine-4,6-dione]
C (C≧75%) | COc1ccccc1-c1c(Cl)sc2c1C(=O)C(C)(c1ccccc1F)C(=O)N2 (stereo not drawn) [No 69, 2-chloro-5-(2-fluorophenyl)-3-(2-methoxyphenyl)-5-methyl-7H-thieno[2,3-b]pyridine-4,6-dione]
C (C≧75%) | Cc1sc2c(c1-c1ccccc1)C(=O)C(F)(c1ccccc1)C(=O)N2 (stereo not drawn) [No 70, 5-fluoro-2-methyl-3,5-diphenyl-7H-thieno[2,3-b]pyridine-4,6-dione]
B (50%≦B<75%) | O=C1Nc2sc(Cl)c(-c3cccnc3)c2C(=O)C1(F)c1ccccc1 (stereo not drawn) [No 71, 2-chloro-5-fluoro-5-phenyl-3-(3-pyridyl)-7H-thieno[2,3-b]pyridine-4,6-dione]
C (C≧75%) | O=C1Nc2sc(Cl)c(-c3ccc(O)cc3)c2C(=O)C1(F)c1ccccc1 (stereo not drawn) [No 72, 2-chloro-5-fluoro-3-(4-hydroxyphenyl)-5-phenyl-7H-thieno[2,3-b]pyridine-4,6-dione]
C (C≧75%) | O=C1Nc2sc(Cl)c(-c3ccccc3F)c2C(=O)C1(F)c1ccccc1 (stereo not drawn) [No 73, 2-chloro-5-fluoro-3-(2-fluorophenyl)-5-phenyl-7H-thieno[2,3-b]pyridine-4,6-dione]
C (C≧75%) | COc1ccc(-c2c(Cl)sc3c2C(=O)C(F)(c2ccccc2)C(=O)N3)c(F)c1 (stereo not drawn) [No 74, 2-chloro-5-fluoro-3-(2-fluoro-4-methoxy-phenyl)-5-phenyl-7H-thieno[2,3-b]pyridine-4,6-dione]
A (0%<A<50%) | Cc1ccc(C2(C)C(=O)Nc3sc(Cl)c(-c4ccccc4F)c3C2=O)cc1 (stereo not drawn) [No 75, 2-chloro-3-(2-fluorophenyl)-5-methyl-5-(p-tolyl)-7H-thieno[2,3-b]pyridine-4,6-dione]
A (0%<A<50%) | COc1cccc(C2(C)C(=O)Nc3sc(Cl)c(-c4ccccc4F)c3C2=O)c1 (stereo not drawn) [No 76, 2-chloro-3-(2-fluorophenyl)-5-(3-methoxyphenyl)-5-methyl-7H-thieno[2,3-b]pyridine-4,6-dione]
B (50%≦B<75%) | O=C1Nc2sc(Cl)c(-c3ccc(O)c(F)c3)c2C(=O)C1(F)c1ccccc1 (stereo not drawn) [No 77, 2-chloro-5-fluoro-3-(3-fluoro-4-hydroxy-phenyl)-5-phenyl-7H-thieno[2,3-b]pyridine-4,6-dione]
A (0%<A<50%) | COc1ccccc1C1(F)C(=O)Nc2sc(C)c(-c3ccccc3)c2C1=O (stereo not drawn) [No 78, 5-fluoro-5-(2-methoxyphenyl)-2-methyl-3-phenyl-7H-thieno[2,3-b]pyridine-4,6-dione]
C (C≧75%) | Cc1cccc(-c2c(Cl)sc3c2C(=O)C(F)(c2ccccc2)C(=O)N3)c1 (stereo not drawn) [No 79, 2-chloro-5-fluoro-3-(m-tolyl)-5-phenyl-7H-thieno[2,3-b]pyridine-4,6-dione]
C (C≧75%) | Cc1ccc(-c2c(Cl)sc3c2C(=O)C(F)(c2ccccc2)C(=O)N3)cc1 (stereo not drawn) [No 80, 2-chloro-5-fluoro-5-phenyl-3-(p-tolyl)-7H-thieno[2,3-b]pyridine-4,6-dione]
B (50%≦B<75%) | COc1ccc(-c2c(Cl)sc3c2C(=O)C(F)(c2ccccc2)C(=O)N3)cc1 (stereo not drawn) [No 81, 2-chloro-5-fluoro-3-(4-methoxyphenyl)-5-phenyl-7H-thieno[2,3-b]pyridine-4,6-dione]
A (0%<A<50%) | CS(=O)(=O)c1cccc(C2(F)C(=O)Nc3sc(Cl)c(-c4ccccc4)c3C2=O)c1 (stereo not drawn) [No 82, 2-chloro-5-fluoro-5-(3-methylsulfonylphenyl)-3-phenyl-7H-thieno[2,3-b]pyridine-4,6-dione]
A (0%<A<50%) | Cc1cccc(C2(C)C(=O)Nc3sc(Cl)c(-c4ccc(F)cc4)c3C2=O)c1 (stereo not drawn) [No 83, 2-chloro-3-(4-fluorophenyl)-5-methyl-5-(m-tolyl)-7H-thieno[2,3-b]pyridine-4,6-dione]
B (50%≦B<75%) | COc1ccc(C2(C)C(=O)Nc3sc(Cl)c(-c4ccccc4F)c3C2=O)cc1 (stereo not drawn) [No 84, 2-chloro-3-(2-fluorophenyl)-5-(4-methoxyphenyl)-5-methyl-7H-thieno[2,3-b]pyridine-4,6-dione]
A (0%<A<50%) | COc1ccc(-c2c(Cl)sc3c2C(=O)C(C)(c2cccc(F)c2)C(=O)N3)cc1 (stereo not drawn) [No 85, 2-chloro-5-(3-fluorophenyl)-3-(4-methoxyphenyl)-5-methyl-7H-thieno[2,3-b]pyridine-4,6-dione]
